# Where a SMILES comes first, the peptide text is derived from it. [ ]: non-standard residue; d: D form.
# Key:
# Assay in all cases: GHS Ligand Binding Assay
# [1] = molecular target: Growth hormone secretagogue receptor type 1 (Homo sapiens, UniProt Q92847)
# Protocol: (§1) Titration experimentswere carried out with protein concentrations in the 10 nM protein concentration range and increasing ligand concentrations. […] Buffer contributions were systematically subtracted.
# [2] = molecular target: Growth hormone secretagogue receptor type 1/Isoform 1B of Growth hormone secretagogue receptor type 1 (1B) (Homo sapiens, UniProt Q92847)
# Sequence of Growth hormone secretagogue receptor type 1/Isoform 1B of Growth hormone secretagogue receptor type 1 (1B) (Q92847 whole entry, canonical isoform): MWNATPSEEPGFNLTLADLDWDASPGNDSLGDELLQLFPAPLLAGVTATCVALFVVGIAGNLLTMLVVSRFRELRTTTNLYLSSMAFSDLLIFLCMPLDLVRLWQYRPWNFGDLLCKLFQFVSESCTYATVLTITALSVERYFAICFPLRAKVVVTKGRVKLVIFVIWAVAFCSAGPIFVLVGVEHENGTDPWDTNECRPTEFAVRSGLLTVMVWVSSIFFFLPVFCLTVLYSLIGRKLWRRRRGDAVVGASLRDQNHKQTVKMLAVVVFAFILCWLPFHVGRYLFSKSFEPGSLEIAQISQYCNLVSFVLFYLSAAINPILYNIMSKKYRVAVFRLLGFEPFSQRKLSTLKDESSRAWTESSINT
# Sequence of Growth hormone secretagogue receptor type 1/Isoform 1B of Growth hormone secretagogue receptor type 1 (1B) (Q92847 as listed by the source): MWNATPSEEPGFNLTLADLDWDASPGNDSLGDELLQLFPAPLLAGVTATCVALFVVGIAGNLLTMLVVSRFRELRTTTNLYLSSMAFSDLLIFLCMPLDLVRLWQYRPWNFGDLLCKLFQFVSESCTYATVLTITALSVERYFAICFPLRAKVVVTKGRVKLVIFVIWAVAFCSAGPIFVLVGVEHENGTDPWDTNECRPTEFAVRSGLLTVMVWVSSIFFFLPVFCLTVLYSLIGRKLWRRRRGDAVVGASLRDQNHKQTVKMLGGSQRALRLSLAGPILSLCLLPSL
# Protocol: as §1
# [3] = molecular target: Dimer of Growth hormone secretagogue receptor type 1 (Homo sapiens, UniProt Q92847)
# Sequence of Dimer of Growth hormone secretagogue receptor type 1 (Q92847 whole entry): as the sequence (Q92847 whole entry, canonical isoform) above
# Protocol: as §1
# Sequence of Growth hormone secretagogue receptor type 1 (Q92847 whole entry): as the sequence (Q92847 whole entry, canonical isoform) above
Ki [1] [nM],Ki [2] [nM],Ki [3] [nM],SMILES
294,292,286,"CC(C)C[C@H](NC(=O)[C@H](CC(C)C)NC(=O)[C@@H](Cc1c[nH]c2ccccc12)NC(=O)[C@H](Cc1ccccc1)NC(=O)[C@@H](Cc1c[nH]c2ccccc12)NC(=O)[C@H](CCC(N)=O)NC(=O)[C@@H](Cc1c[nH]c2ccccc12)NC(=O)[C@@H]1CCCN1C(=O)[C@H](CCCCN)NC(=O)[C@@H]1CCCN1C(=O)[C@H](N)CCCN=C(N)N)C(N)=O [Substance P [DArg1, DTrp5,7,9,  Leu11]] (H-[dR]PKP[dW]Q[dW]F[dW]LL-NH2)"
8.3,–,–,COc1ccc(Cn2c(CCc3c[nH]c4ccccc34)nnc2C(Cc2c[nH]c3ccccc23)NC(=O)c2ccccn2)c(OC)c1 (configuration not stated) [JMV 3011]
9.2,19.3,9.9,COc1ccc(Cn2c(CCc3ccccc3)nnc2C(Cc2c[nH]c3ccccc23)NC(=O)c2ccccn2)c(OC)c1 (configuration not stated) [JMV 3002]

# Source: BindingDB's records for doi:10.1074/jbc.M113.453423 (Université Montpellier 1, 2013)
